Assay results published in the METLIN SMRT retention time set (Domingo-Almenara et al. 2019).

Experiment: gradient 5% acetonitrile 3 min, to 50% in 2 min, to 85% in 15 min, held 3 min, 100 µL/min
Settings: column: Zorbax Extend-C18 2.1 x 50 mm; eluents: water / acetonitrile, 0.1% formic acid
Summary of the method: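 The mobile phases were water and acetonitrile, each with 0.1% formic acid, pumped at 100 μL/min through a Zorbax Extend-C18 column (2.1 × 50 mm, 1.8 μm). Pure standards were injected as mixtures of ~100 molecules and detected by a quadrupole time-of-flight mass spectrometer in positive and negative ionization mode. Retention time came from computationally picked adduct peaks, each inspected by hand.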

Structure (SMILES) | RP-LC retention time [s]
O=C(Nc1cc(C(F)(F)F)ccc1Cl)c1cccc(Oc2ncccn2)c1 | 900
Cc1nc(-c2cn(C(C)C)c3ncccc23)sc1C(=O)NCC(C)C | 975
Cc1ccccc1NC(=O)Nc1ccc2nnc(C)n2c1 | 662
Cc1csc(-c2cc(S(=O)(=O)N3CCOCC3)cn2CC(=O)N2CCCC2)n1 | 770
Cc1nn(-c2ccccc2)c2c1N(CC(=O)NC1CCCC1)C(=O)CS2 | 780
CCOCCCNC(=O)c1cc2sccc2n1Cc1ccc(Cl)cc1 | 1040
Cc1ccc(N2CC(c3noc(-c4ccncc4)n3)CC2=O)cc1 (stereo unspecified) | 798
Cc1[nH]c(C)c(S(=O)(=O)N2CCN(c3ccccn3)CC2)c1C(=O)N1CCCC1 | 586
COc1cccc(Cn2c(=O)c3sccc3n(Cc3nc(-c4ccccc4Cl)no3)c2=O)c1 | 1080
CCOC(=O)c1[nH]c(C)c(CCC(=O)N2CCC(C(=O)NCc3ccccc3OC)CC2)c1C | 800
COc1cccc(CNC(=O)c2cn3cc(C)ccc3n2)c1OC | 541
CCCCOc1cccc(C(=O)N(Cc2ccc(C)o2)C2CCS(=O)(=O)C2)c1 (stereo unspecified) | 1030
CCOC(=O)c1ccc(N2CCCC2)nn1 | 562
CCc1ccc(NC2CC(=O)N(c3ccc(OC)cc3OC)C2=O)cc1 (stereo unspecified) | 887
O=C(NCc1ccc(F)cc1F)c1csc(C(=O)NC2CC2)n1 | 789
CC1CCN(S(=O)(=O)c2ccc(-c3nnc(C(=O)NCCc4cccs4)o3)cc2)CC1 | 1060
Cn1cc(C(=O)Nc2ccc3c(c2)CCC3)c(S(=O)(=O)N2CCCCC2)n1 | 1090
COc1ccc(-c2noc(C3CCCN3C(=O)Nc3ccc(C)cc3)n2)cc1 (stereo unspecified) | 830
COC(=O)c1cnc2nc(C)ccc2c1Nc1ccc(C)cc1C | 699
CCN(C(=O)c1cccc(OC)c1)c1nc(-c2ccccc2)cs1 | 1270
Cc1ccc2c(c1)Oc1ccccc1N=C2 | 993
CC(C)CCNC(=O)C1(C)Cn2nc(C(=O)N3CCN(C4CCCCC4)CC3)cc2C(=O)N1C (stereo unspecified) | 620

Structure (SMILES) | RP-LC retention time [s]
COC(=O)c1ncoc1-c1ccccc1C(=O)N1CCCC1 | 643
COCc1nc2cccnc2n1C1CCN(C(=O)Nc2ccc(Br)cc2F)CC1 | 746
CCOC(=O)COc1cc(-c2ccc(C)cc2)nc2ccc(NC(=O)COc3ccccc3)cc12 | 902
CCCn1c(=O)sc2cc(S(=O)(=O)N3CCC(C(=O)Nc4cccc(OC)c4)CC3)ccc21 | 978
COc1ccc(OC)c(CNC(=O)c2cnc(OC)nc2)c1 | 700
COc1ccc(C(=O)N2CCN(S(=O)(=O)c3cc4c5c(c3)CCC(=O)N5CCC4)CC2)cc1 | 779
COc1ccc(-c2cc(N3CCC(NC(=O)c4ccc(N(C)C)cc4)C3)n[nH]2)cc1 (stereo unspecified) | 702
CCCOc1ccc(-c2csc(NC(=O)c3sc(C)nc3C)n2)cc1 | 1080
Cc1ccc(NC(=O)C2CCCN(S(=O)(=O)c3cn(C(C)C)cn3)C2)cc1F (stereo unspecified) | 847
Cc1ccc(NC(=O)COc2cc(C(F)(F)F)c3c(C)nn(C)c3n2)c(C)c1 | 1060
CC1CCN(C(=O)Cn2c(=O)n(-c3ccc(F)cc3)c3ncccc32)CC1 | 834
Cc1nn(C(C)C(=O)NC2CCCCC2)c(=O)c2nn(-c3ccccc3)c(C)c12 (stereo unspecified) | 879
CC(=O)N1CCc2cc(N3CC(C(=O)Nc4cccc(OC(F)(F)F)c4)CC3=O)ccc21 (stereo unspecified) | 806
Cc1ccc(NC(=O)N2CC(c3nc(C)no3)C3(CCOCC3)C2)cc1 (stereo unspecified) | 716
COc1ccc(C(=O)NCc2cccnc2OC)c(OC)n1 | 840
CCCc1ccc(S(=O)(=O)N2CCC(OCc3noc(C4CCCO4)n3)CC2)cc1 (stereo unspecified) | 987
O=c1n(CC2CC2)nc2n1CCC(NS(=O)(=O)c1cccnc1)CC2 (stereo unspecified) | 621
CCOc1ccc(-c2noc(CN3N=NC4C(=O)N(c5ccc(C)c(F)c5)C(=O)C43)n2)cc1OC (stereo unspecified) | 801
O=C(Nc1cnn(-c2ncc(N3CCCCC3)cn2)c1)c1ccccc1C(F)(F)F | 865
O=C(NC1CCCN(c2cc(N3CCCC3)ncn2)C1)c1ccccn1 (stereo unspecified) | 606
CCn1nc(-c2ccccc2)c(-c2ccccc2)c(C(=O)NCCN(C)C)c1=O | 648
O=C(C1CCN(c2ncnc3c2oc2ccccc23)CC1)N1CCN(c2ccc(Cl)cc2)CC1 | 891

Structure (SMILES) | RP-LC retention time [s]
Cc1cccc(NC(=O)N2CCC(n3cnc4cc(Cl)ccc4c3=O)CC2)c1 | 877
COc1cc(C(=O)N2CCN(c3cc(=O)n(C)c(=O)n3C)CC2)cc(OC)c1OC | 630
CSc1cccc(NC(=O)CN2CCC3(CC2)N=C(c2cccc(F)c2)C(=O)N3)c1 | 685
COC(=O)Nc1ccc2[nH]cc(CCNC(C)=O)c2c1 | 673
CN(C)c1ccc(C(=O)Nc2cc(-c3cccs3)no2)cc1 | 972
O=C(CCCN1CCN(Cc2ccc(F)cc2)C(=O)C1=O)NCCc1ccc(Cl)cc1 | 733
CN(C)S(=O)(=O)c1cccc(-c2nnc(-c3ccccc3Cl)o2)c1 | 941
Cc1cc(=O)n2nc(-c3ccc(Cl)cc3)nc2n1CC(=O)N1CCN(c2ccc(F)cc2)CC1 | 933
Cc1ccc(Nc2nc(C)cc(N3CCN(C(=O)Nc4cccc(C)c4)CC3)n2)cc1 | 717
O=C(NCC1CCOCC1)Nc1cccc(Br)c1 | 749
COc1cc(-c2nc3cc(C)ccn3c2Nc2ccc3c(c2)OCCO3)ccc1O | 636
C[C@H]1CN(C(=O)NCc2ccccc2)C[C@@H]1c1nc(-c2cccnc2)no1 | 730
CC1CCN(CCNC(=O)C2CCCN(c3ncnc4c3nc3n4CCCCC3)C2)CC1 (stereo unspecified) | 599
Cc1cccc(NC(=O)C2CCCN2S(=O)(=O)c2cc3c(cc2C)NC(=O)C(C)O3)c1 (stereo unspecified) | 813
Cc1nc(-c2ccccc2)oc1CC(=O)N1CCCCCC1 | 868
Cc1ccccc1OCC(=O)NC[C@@]12CCC[C@H]1N(C)C(=O)CC2 | 755
CN(C)C(CNC(=O)NCc1cccs1)c1cn(C)c2ccccc12 (stereo unspecified) | 586
Cc1c(C(=O)N2CC(C)CC(C)C2)sc2ncn(CC(=O)N3CCC(C)CC3)c(=O)c12 (stereo unspecified) | 891
COc1ccc(NC(=O)C2(C)CCCCC(=O)N2)cc1F (stereo unspecified) | 690
CC(C)Oc1ccccc1CN1C[C@@H]2C(=O)N(CCCN3CCCC3=O)C(=O)[C@@H]2C1 | 630
COc1cccc(CNS(=O)(=O)c2ccccc2-c2nc(-c3cccc(F)c3)no2)c1 | 1150
CS(=O)(=O)Nc1ccc(C2(C(=O)NCc3ccccn3)CCCCC2)cc1 | 620
